# Source: patent US20230372433A1, “NANOPARTICLE FOR ANTI-CANCER PEPTIDES AND USES THEREOF” (KING'S COLLEGE LONDON, priority 2020, published 2023)
# Where two headings read alike, the source gives them in different places. [ ]: non-standard residue; d: D form.
# What was measured:
# [1] = tested on: HMLER-shEcad (human breast cancer stem cell); experiment: MTT cytotoxicity assay, HMLER-shEcad; type: cell-based
# [2] = tested on: U2OS (human bone osteosarcoma); experiment: MTT cytotoxicity assay, U2OS; type: cell-based; conditions: 72 hr
# [3] = tested on: HMLER-shEcad mammospheres; experiment: Tumoursphere formation and viability assay; type: cell-based, human
# HMLER-shEcad cells = experiment: HMLER-shEcad viability with co-incubated necrostatin or z-VAD-FMK; type: cell-based, human
# [4] = tested on: HEK293T (human embryonic kidney cell); experiment: MTT cytotoxicity assay, HEK293T; type: cell-based; conditions: read-out: IC50 HEK293T
# [5] = tested on: HMLER (human breast cancer bulk cell); experiment: MTT cytotoxicity assay, HMLER; type: cell-based; conditions: read-out: IC50 HMLER
# [6] = tested on: MCF-10A (human breast epithelial cell); experiment: cells
# [7] = ANTS/DPX liposome leakage assay, 3POPC/1POPG vesicles; type: biochemical; conditions: for Peptide Concentration-induced 50% ANTS/DPX leakage at pH 4.8 (L/P) 3POPC/1POPG Vesicle / Peptide Concentration-induced 50% ANTS/DPX leakage at pH 7.4 (L/P) 3POPC/1POPG Vesicle: 0.5 mM vesicles; for liposome leakage activity from anionic vesicle at pH 4.8: compared with zwitterionic vesicle
# How it was run: (§1)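 0.5 mM extruded 100 nm LUVs loaded with 5 mM ANTS/12.5 mM DPX were incubated 3 h with peptide at 0–20 μM in PBS pH 7.4 or HCl-adjusted PBS pH 4.8. Fluorescence read at ex 350/em 510 nm; 10% Triton set maximum leakage; values expressed as lipid per peptide.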
# [8] = ANTS/DPX liposome leakage assay, POPC vesicles; type: biochemical; conditions: 0.5 mM vesicles
# How it was run: as §1
# [9] = Tryptophan fluorescent binding assay, POPC vesicles; conditions: 50 μM peptide, PBS pH 7.4
# How it was run: (§2)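 Tryptophan fluorescence was measured with peptide fixed at 50 μM and POPC or 3POPC/1POPG LUVs (100 nm extruded) titrated 0–5000 μM in PBS pH 7.4, read after 60 min. Excitation was 280 nm and emission 300–450 nm. The value is the lipid concentration giving 50% peptide binding, expressed as lipid per peptide.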
# human red blood cells = tested on: human red blood cells
# Procedure: Peptides were serially diluted in PBS starting at a concentration of 100 μM. The final volume of peptide in each well was 50 μL. To each well, 50 μL of RBCs in PBS at 2×10^8 cells/mL was added. As a positive lysis control, 1% triton was used. The mixtures were incubated at 37° C. for 1 hour, after which they were centrifuged at 1000x g for 5 minutes. After centrifugation, 10 μL of supernatant was transferred to 90 μL of DI H2O in a fresh 96-well plate. The absorbance of released hemoglobin at 410 nm was recorded and the fractional hemolysis was calculated based on the 100% and 0% lysis controls.
# [10] = Tryptophan fluorescent binding assay, 3POPC/1POPG vesicles; conditions: 50 μM peptide, PBS pH 7.4
# How it was run: as §2
# [11] = Homo sapiens, MCF-10A, 72 h, read-out: IC50 MCF-10A
# [12] = 72 hr, MTT, read-out: IC50 HMLER-shEcad
# [13] = read-out: IC50 MCF-10A, 72 hr, MTT
Compound,cell viability on co-incubation with necrostatin or z-VAD-FMK (HMLER-shEcad cells),Peptide Concentration-induced 50% ANTS/DPX leakage at pH 4.8 (L/P) 3POPC/1POPG Vesicle [7],Peptide Concentration-induced 50% ANTS/DPX leakage at pH 7.4 (L/P) 3POPC/1POPG Vesicle [7],Peptide Concentration-induced 50% ANTS/DPX leakage at pH 4.8 (L/P) POPC Vesicle [8],Peptide Concentration-induced 50% ANTS/DPX leakage at pH 7.4 (L/P) POPC Vesicle [8],Lipid Concentration-induced 50% Peptide Binding (L/P) POPC Vesicle [9],Lipid Concentration-induced 50% Peptide Binding (L/P) 3POPC/1POPG Vesicle [10],"IC50 [1, 12]",IC50 [2],"IC50 ([4]; 72 hr, MTT)","IC50 ([5]; 72 hr, MTT)","IC50 [6, 13]",also measured
"COc1cccc2c1C(=O)c1c(O)c3c(c(O)c1C2=O)C[C@@](O)(C(=O)CO)C[C@@H]3O[C@H]1C[C@H](N)[C@H](O)[C@H](C)O1 [Doxorubicin, reference compound]",can be dramatically improved,–,–,–,–,–,–,–,–,–,–,–,"IC50 ([1]; Homo sapiens, 72 hr, MTT, read-out: IC50 HMLER-shEcad): 0.003 µM; IC50 ([1]; Homo sapiens, two-dimensional culture, read-out: IC50 against two-dimensional HMLER-shEcad): 0.0025 ± 0.0003 µM; IC50 ([2]; Homo sapiens, U2OS): 0.015 µM; fold decrease in activity, mammospheres versus two-dimensional HMLER-shEcad [3]: 1,700 fold; IC50 ([4]; Homo sapiens, HEK-293T, 72 hr, MTT): 0.00011 µM; IC50 ([5]; Homo sapiens, 72 hr, MTT): 0.0025 µM; IC50 [6, 11]: 0.64 µM"
"CC[C@@H](C(=O)[C@@H](C)[C@@H](O)[C@H](C)[C@@H]1O[C@@H]([C@@H](CC)C(=O)O)CC[C@@H]1C)[C@H]1O[C@]2(C=C[C@@H](O)[C@]3(CC[C@@](C)([C@H]4CC[C@](O)(CC)[C@H](C)O4)O3)O2)[C@H](C)C[C@@H]1C [Salinomycin, reference compound]",–,–,–,–,–,–,–,–,–,–,–,–,"IC50 ([1]; Homo sapiens, 72 h, read-out: IC50 HMLER-shEcad): 0.92 ± 0.28 µM; IC50 ([1]; Homo sapiens, read-out: IC50 against two-dimensional HMLER-shEcad): 0.37 ± 0.0005 µM; fold decrease in activity, mammospheres versus two-dimensional HMLER-shEcad [3]: 63 fold; IC50 ([3]; Homo sapiens, read-out: IC50 in mammospheres): 22 ± 5 µM; IC50 ([4]; Homo sapiens, HEK-293T, 72 h): 0.41 ± 0.1 µM; IC50 ([5]; Homo sapiens, 72 h): 0.37 ± 0.08 µM; IC50 [6, 11]: 9.76 ± 2.28 µM"
CC(C)C[C@H](NC(=O)CN)C(=O)N[C@@H](CC(C)C)C(=O)N[C@@H](CCC(=O)O)C(=O)N[C@@H](CC(C)C)C(=O)N[C@@H](CC(C)C)C(=O)N[C@@H](CCC(=O)O)C(=O)N[C@@H](CC(C)C)C(=O)N[C@@H](CC(C)C)C(=O)N[C@@H](CC(C)C)C(=O)N[C@@H](CCCCN)C(=O)N[C@@H](C)C(=O)N[C@@H](C)C(=O)NCC(=O)N[C@@H](Cc1c[nH]c2ccccc12)C(N)=O [EEK],cannot be improved,386 L/P,657 L/P,39 L/P,730 L/P,0.48 L/P,4.50 L/P,–,–,–,–,–,liposome leakage activity from anionic vesicle at pH 4.8 [7]: relatively higher liposome leakage activity; concentration below which minimal lysis is caused (human red blood cells): below 90 μM
D-form peptide of the selected sequence EEK (GLLELLELLLKAAGW) (H-G[dL][dL][dE][dL][dL][dE][dL][dL][dL][dK][dA][dA]G[dW]-NH2) [D-form EEK],cannot be improved,–,–,–,–,–,–,0.29 ± 0.01 µM,4.78 ± 0.02 µM,2.82 ± 0.07 µM,0.29 ± 0.01 µM,1.07 ± 0.1 µM,–
GLLKLLHLLLHAAG [KHH],–,48 L/P,329 L/P,227 L/P,1153 L/P,3.50 L/P,0.94 L/P,4.45 ± 0.49 µM,39.8 ± 5.3 µM,7.75 ± 0.78 µM,5.2 ± 0.71 µM,10.3 ± 0.49 µM,–
GLLELLHLLLKAAG [EHK],–,117 L/P,505 L/P,55 L/P,981 L/P,0.56 L/P,0.42 L/P,0.71 ± 0.13 µM,25 µM,5.35 ± 0.07 µM,1.35 ± 0.35 µM,3.6 ± 0.99 µM,–
GLLHLLKLLLHAAG [HKH],–,47 L/P,274 L/P,193 L/P,1077 L/P,0.18 L/P,0.38 L/P,3.1 ± 0.57 µM,18.9 ± 1.24 µM,5.7 ± 0.99 µM,3.45 ± 0.21 µM,6.1 µM,–
CC(C)C[C@H](NC(=O)CN)C(=O)N[C@@H](CC(C)C)C(=O)N[C@@H](CCCCN)C(=O)N[C@@H](CC(C)C)C(=O)N[C@@H](CC(C)C)C(=O)N[C@@H](CCC(=O)O)C(=O)N[C@@H](CC(C)C)C(=O)N[C@@H](CC(C)C)C(=O)N[C@@H](CC(C)C)C(=O)N[C@@H](CCC(=O)O)C(=O)N[C@@H](C)C(=O)N[C@@H](C)C(=O)NCC(=O)N[C@@H](Cc1c[nH]c2ccccc12)C(N)=O [KEE],–,108 L/P,657 L/P,97 L/P,626 L/P,0.20 L/P,0.20 L/P,2.05 ± 0.21 µM,49.4 ± 13.3 µM,11.1 ± 1.84 µM,3.75 ± 0.78 µM,–,IC50 [6]: ≥ 100 µM
CC(C)C[C@H](NC(=O)CN)C(=O)N[C@@H](CC(C)C)C(=O)N[C@@H](CC(=O)O)C(=O)N[C@@H](CC(C)C)C(=O)N[C@@H](CC(C)C)C(=O)N[C@@H](CCC(=O)O)C(=O)N[C@@H](CC(C)C)C(=O)N[C@@H](CC(C)C)C(=O)N[C@@H](CC(C)C)C(=O)N[C@@H](CCCCN)C(=O)N[C@@H](C)C(=O)N[C@@H](C)C(=O)NCC(=O)N[C@@H](Cc1c[nH]c2ccccc12)C(N)=O [DEK],–,469 L/P,773 L/P,10 L/P,747 L/P,1.50 L/P,1.67 L/P,0.7 ± 0.07 µM,19.9 ± 2.65 µM,6.8 ± 0.85 µM,1.14 ± 0.52 µM,–,liposome leakage activity from anionic vesicle at pH 4.8 [7]: relatively higher liposome leakage activity; IC50 [6]: ≥ 100 µM
GLLDLLKLLLHAAG [DKH],–,58 L/P,274 L/P,41 L/P,614 L/P,10.00 L/P,0.46 L/P,2.8 ± 0.28 µM,21.1 ± 3.01 µM,6.15 ± 1.34 µM,3.45 ± 0.07 µM,7.05 ± 0.21 µM,–
